Results published in patent US20220265176A1, “A NOVEL, ORGAN-ON-A-CHIP DEVICE FOR ASSESSING TRANS-EPITHELIAL TRANSPORT, AND USES THEREOF” (The Johns Hopkins University, priority 2019, published 2022).

Experiments:
cysts = conditions: mouse models of ADPKD; AVP treatment; reference [15]; cited from earlier work
ADPKD cystic cells = experiment: MFKP pump performance curve, ADPKD cystic cells; format: cell-based, human
Excerpt: (§1) A micro-fluidic device to measure transepithelial fluid absorption activities of the kidney epithelium while allowing for cell imaging andvsimultaneous control of fluid pressure, shear stress (FSS), and media chemical composition is described herein (see FIG. 2A-2F). The device measures fluidic flux across the epithelium as a function of apical and basal pressures using a microcapillary (MC) connected to port 2 or 3 (FIG. 2C). The MC measures both the trans-epithelial fluid flux and the hydraulic pressure (FIG. 2C, 2F). […] Calibration experiments are performed to obtain capillary action contribution from the MC to the basal pressure and the static pressure profiles of each device for the shear flow condition considered.
(§2) Next, it was considered whether the device is useful for understanding fluidic pumping by primary human normal kidney and ADPKD cystic cells. […] The barrier function of the epithelia was again assessed using dye permeation assay (FIG. 15A-15I).
Port 1 is closed. (4B) Schematic of the setup, which allows measurement of trans-epithelial fluid flux from the basal to apical chamber. (4C) Schematic representation of a cystic kidney derived from ADPKD patients.

WTm cells = experiment: MFKP pump performance curve, wild type medulla (WTm) primary kidney cells; format: cell-based, human
Excerpt: as §1, §2
(§3) Port 1 is closed. (4B) Schematic of the setup, which allows measurement of trans-epithelial fluid flux from the basal to apical chamber. (4C) Schematic representation of a cystic kidney derived from ADPKD patients. (4D) Schematic representation of a kidney derived from normal human patients. (4E) The MC is connected to port 3 in the MFKP. Port 1 is closed. (4F) This setup enables measurement of trans-epithelial fluid flux from apical to basal chamber.

MDCK-II epithelium = experiment: Micro-fluidic Kidney Pump (MFKP) pump performance curve, MDCK-II epithelium; format: cell-based
Excerpt: as §1

WTc cells = experiment: MFKP pump performance curve, wild type cortex (WTc) primary kidney cells; format: cell-based, human
Excerpt: as §1, §2, §3

ADPKD kidney = conditions: reference [16]; cited from earlier work
V2R = V2R (Homo sapiens, UniProt P30518); conditions: reference [18]; cited from earlier work
[1] = mature ADPKD epithelium, 1 nM TVP on basolateral side for 1 hour, vs control

Chain of V2R (P30518 whole entry, species assumed): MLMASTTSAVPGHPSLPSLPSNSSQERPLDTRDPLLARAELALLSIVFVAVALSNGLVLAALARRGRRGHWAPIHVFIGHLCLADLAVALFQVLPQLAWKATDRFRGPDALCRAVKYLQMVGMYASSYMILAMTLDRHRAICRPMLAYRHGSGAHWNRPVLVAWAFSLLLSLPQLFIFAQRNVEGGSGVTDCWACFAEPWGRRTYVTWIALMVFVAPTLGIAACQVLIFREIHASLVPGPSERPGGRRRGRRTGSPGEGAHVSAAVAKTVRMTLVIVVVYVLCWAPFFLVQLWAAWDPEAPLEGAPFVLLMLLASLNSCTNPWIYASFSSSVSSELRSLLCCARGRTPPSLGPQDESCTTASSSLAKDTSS

## NC(=O)CC[C@@H]1NC(=O)[C@H](Cc2ccccc2)NC(=O)[C@H](Cc2ccc(O)cc2)NC(=O)[C@@H](N)CSSC[C@@H](C(=O)N2CCC[C@H]2C(=O)N[C@@H](CCCN=C(N)N)C(=O)NCC(N)=O)NC(=O)[C@H](CC(N)=O)NC1=O [AVP, arginine vasopressin]
cysts
  cyst growth: grow bigger
ADPKD cystic cells; ADPKD cells, basolateral treatment of AVP
  stall pressure ΔP*: −300 Pa
ADPKD cystic cells; ADPKD epithelium, basolateral treatment of AVP
  basal-to-apical fluid pumping: massive surge
WTm cells; basolateral treatment of AVP
  J0 and ΔP*: variable response
MDCK-II epithelium; MDCK-II epithelium, chemical perturbation (addition of AVP)
  pump performance curve (PPC): changes substantially
WTc cells; basolateral treatment of AVP
  J0 and ΔP*: variable response

## C[C@@H]1O[C@@H](O[C@H]2C[C@@H](O)[C@]3(CO)[C@H]4[C@H](O)C[C@]5(C)[C@@H](C6=CC(=O)OC6)CC[C@]5(O)[C@@H]4CC[C@]3(O)C2)[C@H](O)[C@H](O)[C@H]1O [Ouabain]
WTm cells; overnight incubation with 274 μM Ouabain (control 4.3)
  J0: 1.0 μL/min/cm2
WTm cells; overnight incubation with 274 μM Ouabain (control 56 Pa)
  ΔP*: 42 Pa
WTc cells; after Ouabain induced inhibition of NKA (control 4.3)
  equilibrium fluid flux (J0): 1.7 μL/min/cm^2
WTc cells; after Ouabain induced inhibition of NKA (control 157 Pa)
  stall pressure ΔP*: 34 Pa

## Cc1ccccc1C(=O)Nc1ccc(C(=O)N2CCCC(O)c3cc(Cl)ccc32)c(C)c1 (stereo not drawn) [Tolvaptan]
ADPKD kidney
  total kidney volume: decreased
ADPKD cystic cells; [1]
  J0 (fluid flux at zero pressure gradient): decreased
  stall pressure ΔP*: decreased
V2R
  cAMP levels: decrease

## C[C@@H](N)[C@H]1CC[C@H](C(=O)Nc2ccncc2)CC1 [Y-27367]
MDCK-II epithelium; MDCK-II epithelium in MFKP, addition of Y-27367
  fluid flux: did not influence fluid flux significantly
